Test results: patent US9896710B2, “Glycosyltransferase derived from Dolwoe and use thereof” (KOREA ADVANCED INSTITUTE OF SCIENCE AND TECHNOLOGY, priority 2014, dated 2018)

System: UDP-glycosyltransferase GpUGT23
Assay: In vitro glycosyltransferase assay of purified recombinant GpUGT23 with ginsenoside substrates and UDP-glucose
Type: biochemical, Dolwoe (Gynostemma pentaphyllum)
Details: purified GpUGT23 30 μg, ginsenoside 5 mM, UDP-glucose 50 mM, 10 mM PBS pH 7, 37° C., 12 hours, products: CK->gypenoside LXXV, F2->gypenoside XVII, Rd->Rb1, F1->notoginsenoside U; for conversion of the ginsenoside by GpUGT23 (glycosyltransfer activity), HPLC: UV 203 nm (FIGS. 3 and 4); for conversion of the ginsenoside by GpUGT23 (glycosyltransfer activity), TLC: TLC (FIG. 2)
Experimental: A glycosyltransferase assay was performed in a reaction buffer (10 mM PBS buffer, pH 7) containing the purified GpUGT23 (30 μg), a ginsenoside compound (5 mM) and UDP-glucose (50 mM). For this assay, 4 different types of ginsenosides, including CK (Compound K), F2, Rd, and F1, were used and reacted with the enzyme of the present invention.
The reaction mixture was incubated at 37° C. for 12 hours, and then the products were analyzed by thin-layer chromatography (TLC) or high performance liquid chromatography (HPLC).
TLC analysis was performed using a mobile phase (acetone:methanol:DDW=65:35:10 vol/vol) and a 60F254 silica gel plate (Merck, Germany). The resolved product on the TLC plate was detected by spraying the plate with 10% (vol/vol) sulfuric acid (H2SO4) and heating it at 110° C. for 5 minutes (FIG. 2).
HPLC analysis was performed using ODS(2) C18 column (Phenomenex, USA). Water and acetonitrile gradient application time and a component ratio are as follows: at a flow rate of 1 mL per minute, at 0 minutes, 68% water and 32% acetonitrile; 8 minutes, 35% water and 65% acetonitrile; 12 minutes, 0% water and 100% acetonitrile; 20 minutes, 0% water and 100% acetonitrile; 20.1 minutes, 68% water and 32% acetonitrile; and 28 minutes, 68% water and 32% acetonitrile (FIGS. 3 and 4).
Ginsenosides were detected by using a UV-detector (Agilent, USA) at a wavelength of 203 nm.
Substrate specificity and regioselectivity of GpUGT23 were examined by the method described in Example 2.
First, the recombinant GpUGT of Example 1, GpUGT23, was reacted with 9 types of ginsenosides (PPD, Rh2, Rg3, CK, F2, Rd, PPT, F1, and Rh1) in the presence of UDP-glucose, and the reaction products of CK, F2, Rd, and F1 were analyzed by TLC (thin-layer chromatography).
To further analyze these, 4 different types of ginsenosides (CK, F2, Rd, and F1) were incubated with GpUGT23, and then the products converted by the recombinant GpUGT23 were analyzed by TLC, and the results are shown in FIG. 2. The results were confirmed by comparing their migrating spots with migrating spots of CK, Gyp75 (gypenoside LXXV), F2, Gyp17 (gypenoside XVII), Rd, Rb1, and F1 used as reference samples.

| SMILES | conversion of the ginsenoside by GpUGT23 (glycosyltransfer activity), HPLC | conversion of the ginsenoside by GpUGT23 (glycosyltransfer activity), TLC |
| --- | --- | --- |
| CC(C)=CCCC(C)(O)[C@H]1CC[C@]2(C)[C@@H]1[C@H](O)C[C@@H]1[C@@]3(C)CC[C@H](O)C(C)(C)[C@@H]3CC[C@]12C (stereo in doubt) [PPD, protopanaxadiol] | did not react | – |
| CC(C)=CCC[C@](C)(O[C@@H]1O[C@H](CO)[C@@H](O)[C@H](O)[C@H]1O)[C@H]1CC[C@]2(C)[C@@H]1[C@H](O)C[C@@H]1[C@@]3(C)CC[C@H](O)C(C)(C)[C@@H]3CC[C@]12C [CK, Compound K] | converted | converted |
| CC(C)=CCC[C@](C)(O[C@@H]1O[C@H](CO)[C@@H](O)[C@H](O)[C@H]1O)[C@H]1CC[C@]2(C)[C@@H]1[C@H](O)C[C@@H]1[C@@]3(C)CC[C@H](O)C(C)(C)[C@@H]3[C@@H](O)C[C@]12C [F1] | converted | converted |
| CC(C)=CCC[C@](C)(O[C@@H]1O[C@H](CO)[C@@H](O)[C@H](O)[C@H]1O)[C@H]1CC[C@]2(C)[C@@H]1[C@H](O)C[C@@H]1[C@@]3(C)CC[C@H](O[C@@H]4O[C@H](CO)[C@@H](O)[C@H](O)[C@H]4O)C(C)(C)[C@@H]3CC[C@]12C [F2] | converted | converted |
| CC(C)=CCC[C@](C)(O)[C@H]1CC[C@]2(C)[C@@H]1[C@H](O)C[C@@H]1[C@@]3(C)CC[C@H](O)C(C)(C)[C@@H]3[C@@H](O)C[C@]12C [PPT, protopanaxatriol] | did not react | – |
| CC(C)=CCC[C@](C)(O[C@@H]1O[C@H](CO)[C@@H](O)[C@H](O)[C@H]1O)[C@H]1CC[C@]2(C)[C@@H]1[C@H](O)C[C@@H]1[C@@]3(C)CC[C@H](O[C@@H]4O[C@H](CO)[C@@H](O)[C@H](O)[C@H]4O[C@@H]4O[C@H](CO)[C@@H](O)[C@H](O)[C@H]4O)C(C)(C)[C@@H]3CC[C@]12C [Rd] | converted | converted |
| CC(C)=CCC[C@](C)(O)[C@H]1CC[C@]2(C)[C@@H]1[C@H](O)C[C@@H]1[C@@]3(C)CC[C@H](O)C(C)(C)[C@@H]3[C@@H](O[C@@H]3O[C@H](CO)[C@@H](O)[C@H](O)[C@H]3O[C@@H]3O[C@@H](C)[C@H](O)[C@@H](O)[C@H]3O)C[C@]12C [Rg2] | did not transfer a sugar | – |
| CC(C)=CCC[C@](C)(O)[C@H]1CC[C@]2(C)[C@@H]1[C@H](O)C[C@@H]1[C@@]3(C)CC[C@H](O[C@@H]4O[C@H](CO)[C@@H](O)[C@H](O)[C@H]4O[C@@H]4O[C@H](CO)[C@@H](O)[C@H](O)[C@H]4O)C(C)(C)[C@@H]3CC[C@]12C [Rg3] | did not react | – |
| CC(C)=CCC[C@](C)(O)[C@H]1CC[C@]2(C)[C@@H]1[C@H](O)C[C@@H]1[C@@]3(C)CC[C@H](O)C(C)(C)[C@@H]3[C@@H](O[C@@H]3O[C@H](CO)[C@@H](O)[C@H](O)[C@H]3O)C[C@]12C [Rh1] | did not react | – |
| CC(C)=CCC[C@](C)(O)[C@H]1CC[C@]2(C)[C@@H]1[C@H](O)C[C@@H]1[C@@]3(C)CC[C@H](O[C@@H]4O[C@H](CO)[C@@H](O)[C@H](O)[C@H]4O)C(C)(C)[C@@H]3CC[C@]12C [Rh2] | did not react | – |
